The results in this text go back to publication PMC9743094, “Synthesis and Evaluation of Polymyxins Bearing Reductively Labile Disulfide-Linked Lipids” (Journal of Medicinal Chemistry, 2022).

In brackets after ≈: the same amount, converted by molar mass. Like-named read-outs stand apart in the source and are kept apart here. Positions of bridges follow the written chain, without caps; N, C: chain ends. Non-standard residues stand in square brackets, D forms with d. Residues, ends and D or L forms follow the SMILES beside them. *: point of attachment. S(3-Methylbutyl) = CC(C)CCS*; Dab = NCC[C@H](N)C(=O)O

The test system of one data set is P. aeruginosa (PAO1). It counts as cell-based. The method, then:
(§1) Minimum inhibitory concentrations (MICs) on relevant Gram-negative bacteria were determined by broth microdilution, in accordance with CLSI guidelines. Indicated bacteria were taken from glycerol stocks and incubated overnight on blood agar at 37 °C. Well-isolated colonies were taken, suspended in TSB (5 mL), and grown to an OD600 of 0.5. Compounds to be tested were dissolved in DMSO (6.4 mg/mL), diluted in cation-adjusted Mueller–Hinton Broth (CAMHB) (12.5 and 20 μg/mL Mg^2+ and Ca^2+, respectively), and diluted serially on polypropylene microtiter plates. To the diluted compounds (50 μL per well) was added 50 μL of relevant bacterial suspension, to yield a final concentration of 10^6 CFU/mL. Plates were covered by adhesive gas-permeable membranes and incubated at 37 °C. MIC was read out as the lowest concentration that inhibited visual bacterial growth. Shown values are consistent results from at least duplicate experiments.
(§2) Table S3. MIC values [µg/mL] and relative toxicity values for disulfide containing polymyxin derivative 18b and
(§3) non-disulfide containing analogue 45. […]

A further data set relates to A. baumanii (ATCC 17961). The format is cell-based. The method, then:
as §1, §2, §3

A further data set relates to K. pneumoniae ATCC 29665. The format is cell-based. The method, then:
as §1
(§4) Bacterial strains used for MIC assays and extended MIC assessment
(§5) Strains: The following strains were obtained from BEI Resources, NIAID, NIH: E. Coli M0072, strain
(§6) Table S2. […] Values are given in μg/mL.
(§7) Species Strain ID Resistance Polymyxin B 18b 23a 24a

In another data set the test system is P. aeruginosa 2251. It counts as cell-based. The method, then: as §1, §4, §5, §6, §7
The test system of the next data set is E. coli JS136. It counts as cell-based. The method, then: as §1, §4, §5, §6, §7
The test system of the next data set is P. aeruginosa 2018-007. It counts as cell-based. The method, then: as §1, §4, §5, §6, §7
The test system of the next data set is K. pneumoniae KP1.53. The format is cell-based. The procedure:
as §1, §4, §5, §6, §7

The test system of a further data set is K. pneumoniae RC0045. It counts as cell-based. The procedure:
as §1, §4, §5, §6, §7

The test system of the next data set is P. aeruginosa M120. The format is cell-based. The procedure: as §1, §4, §5, §6, §7
Another data set has as its system A. baumannii BAA-747. The format is cell-based. The method, then:
as §1, §4, §5, §6, §7

The subject of the next data set is A. baumannii RUH-134. It counts as cell-based. The method, then: as §1, §4, §5, §6, §7
The next data set relates to E. coli M0072. It counts as cell-based. The method, then:
as §1, §4, §5, §6, §7

The next data set relates to P. aeruginosa ATCC 10145. The format is cell-based. The method, then: as §1, §4, §5, §6, §7
For another data set, the system named is E. coli 1793. It counts as cell-based. The procedure: as §1, §4, §5, §6, §7
Data set [1] has as its system differentiated conditionally immortalized PTECs (ciPTECs, OAT-1). Nature of the data set: ciPTEC toxicity assay (PrestoBlue). The format is cell-based, human. The gist of the method: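 ciPTEC (OAT-1) cells were differentiated 24 h at 33 °C then 6 days at 37 °C before 24 h exposure at 37 °C to serially diluted compounds in serum-free medium. Viability by 10% PrestoBlue fluorescence (530/590 nm), relative to untreated cells. TC50 from nonlinear regression with bottom fixed at 0; triplicates.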

The subject of data set [2] is Red blood cells from defibrinated sheep blood. Nature of the data set: Hemolysis assay. The settings on record: 128 μg/mL, 1 h, 37 °C, absorbance 415 nm, normalized to 0.1% Triton-X100, triplicates. The format is cell-based. The procedure:
Red blood cells from defibrinated sheep blood (Thermo Fisher Scientific) were centrifuged (400g for 15 min at 4 °C) and washed with PBS containing 0.002% Tween20 four times. The red blood cells were normalized to obtain an absorbance value between 2.5 and 3.0 at 415 nm to stay in the linear range of the assay with maximum sensitivity. A serial dilution of the compounds (128–4 μg/mL, 75 μL) was prepared in a 96-well plate. Each plate contained a positive control (0.1% Triton-X final concentration, 75 μL) and a negative control (buffer, 75 μL). The normalized blood cells (75 μL) were added, and the plates were incubated at 37 °C for 1 h while shaking at 500 rpm. After incubation, the plates were centrifuged (800g for 5 min at RT) and 25 μL of the supernatant was transferred to a second plate, containing 100 μL of PBS in each well. Absorbance was read-out at 415 nm. Values were corrected for background (negative control) and transformed to a percentage relative to the positive control. Results shown (Supporting Information Figure S2) are based on triplicate data.
Stability assessment in presence of glutathione
Figure S1. Compound stability upon incubation with low (5 μM) or high (5 mM) glutathione (GSH) concentration.
Compounds were incubated in PBS with the indicated concentration glutathione for 24 hours. Indicated data points are
based upon integration of HPLC UV data.
Figure S2. […]

The subject of the next data set is E. coli (ATCC 25922). It counts as cell-based. The settings on record: broth microdilution, CLSI, CAMHB, 10^6 CFU/mL, 37 °C, visual growth; triplicate experiments. A digest of the protocol: (§8)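 Broth microdilution per CLSI in cation-adjusted Mueller–Hinton Broth (12.5 μg/mL Mg^2+, 20 μg/mL Ca^2+), inoculum 10^6 CFU/mL final, 37 °C. MIC taken as lowest concentration with no visible growth, consistent across at least duplicate experiments.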
(In general: Broth dilution looks for growth in wells or tubes with falling amounts of substance.)

For data set [3], the system named is K. pneumoniae (ATCC 13883). It counts as cell-based. The settings on record: broth microdilution, CLSI, CAMHB, 10^6 CFU/mL, 37 °C, visual growth; triplicate experiments. The gist of the method:
as §8

The subject of data set [4] is A. baumannii (ATCC 19606). It counts as cell-based. The settings on record: broth microdilution, CLSI, CAMHB, 10^6 CFU/mL, 37 °C, visual growth; triplicate experiments. The gist of the method:
as §8

For data set [5], the system named is P. aeruginosa (ATCC 27853). It counts as cell-based. The settings on record: broth microdilution, CLSI, CAMHB, 10^6 CFU/mL, 37 °C, visual growth; triplicate experiments. A digest of the protocol: as §8
The next data set has as its system A. baumannii NRZ-00687. The format is cell-based. The settings on record: resistance indicator: NDM-2; broth microdilution, CAMHB. The procedure:
as §1, §4, §5, §6, §7

The mark [6] stands for this setting: resistance indicator: OXA-48, broth microdilution, CAMHB.
The mark [7] stands for this setting: resistance indicator: Multiple, broth microdilution, CAMHB.

Turning to `CC(C)CCSSC[C@@H](N)C(=O)N[C@H](C(=O)N[C@@H](CCN)C(=O)N[C@H]1CCNC(=O)[C@H]([C@@H](C)O)NC(=O)[C@H](CCN)NC(=O)[C@H](CCN)NC(=O)[C@H](CC(C)C)NC(=O)[C@@H](Cc2ccccc2)NC(=O)[C@H](CCN)NC1=O)[C@@H](C)O` [Compound 18b] (H-[dC](S(3-Methylbutyl))T[Dab][Dab][Dab][dF]L[Dab][Dab]T; lactam 4-C), the “MIC P. aeruginosa (PAO1)” value in the data set with P. aeruginosa (PAO1) (PAO1, 2 h) came out at 1 µg/mL (≈ 0.856 µM). Moreover, the “MIC A. baumanii (ATCC 17961)” value with A. baumanii (ATCC 17961) (ATCC 17961, 2 h) is recorded as 0.25 µg/mL (≈ 0.214 µM). The “MIC K. pneumoniae ATCC 29665” value with K. pneumoniae ATCC 29665 (ATCC 29665) was 0.5 µg/mL (≈ 0.428 µM). Further, the “MIC P. aeruginosa 2251” value against P. aeruginosa 2251 (2251) stood at 2 µg/mL (≈ 1.71 µM). The “MIC E. coli JS136” value against E. coli JS136 (JS136) worked out at 0.5 µg/mL (≈ 0.428 µM). For the same compound, the “MIC P. aeruginosa 2018-007” value in the data set on P. aeruginosa 2018-007 (2018-007) turned out to be 2 µg/mL (≈ 1.71 µM). Moreover, in the data set with K. pneumoniae KP1.53 (KP1.53), the “MIC K. pneumoniae KP1.53” value turned out to be 1 µg/mL (≈ 0.856 µM). The “MIC K. pneumoniae RC0045” value in the data set with K. pneumoniae RC0045 (RC0045) was 0.5 µg/mL (≈ 0.428 µM). Further, in the data set on P. aeruginosa M120 (M120), the “MIC P. aeruginosa M120” value stood at 2 µg/mL (≈ 1.71 µM). Besides, the “MIC A. baumannii BAA-747” value in the data set on A. baumannii BAA-747 (BAA-747) is 0.5 µg/mL (≈ 0.428 µM). In addition, the “MIC A. baumannii RUH-134” value with A. baumannii RUH-134 (RUH-134) worked out at 1 µg/mL (≈ 0.856 µM). The “MIC E. coli M0072” value with E. coli M0072 (M0072) amounted to 0.5 µg/mL (≈ 0.428 µM). In the data set on P. aeruginosa ATCC 10145 (ATCC 10145), the “MIC P. aeruginosa ATCC 10145” value was 2 µg/mL (≈ 1.71 µM). Further, the “MIC E. coli 1793” value with E. coli 1793 (1793) is 0.25 µg/mL (≈ 0.214 µM). In [1], the “TC50, Day 1” value was determined as 345 µM and the “ciPTEC Toxicity Index (relative to polymyxin B)” value is reported as 4.7. Moreover, in data set [1] (24 h), the “TC50, Day 2” value came out at 192 µM.
Take Polymyxin B [reference compound]: the “MIC P. aeruginosa (PAO1)” value with P. aeruginosa (PAO1) (broth microdilution, CAMHB) stood at 0.5 µg/mL. The “MIC A. baumanii (ATCC 17961)” value in the data set with A. baumanii (ATCC 17961) (broth microdilution, CAMHB) is 0.25 µg/mL. Besides, in [2], the percent hemolysis entry is “below 5%”. Moreover, in the data set on E. coli (ATCC 25922), the “MIC E. coli (ATCC 25922)” value stood at 1 µg/mL. Moreover, the “MIC K. pneumoniae (ATCC 13883)” value in data set [3] came to 0.25 µg/mL. Besides, the “MIC A. baumannii (ATCC 19606)” value in data set [4] is 0.25 µg/mL. For the same compound, the “MIC P. aeruginosa (ATCC 27853)” value in data set [5] is 1 µg/mL. Besides, the “MIC K. pneumoniae ATCC 29665” value in the data set on K. pneumoniae ATCC 29665 (broth microdilution, CAMHB) was determined as 0.25 µg/mL. Also, in the data set with P. aeruginosa 2251 (resistance indicator: VIM-2, broth microdilution, CAMHB), the “MIC P. aeruginosa 2251” value was 1 µg/mL. Further, in the data set with A. baumannii NRZ-00687, the “MIC A. baumannii NRZ-00687” value came out at 0.25 µg/mL. For the same compound, the “MIC E. coli JS136” value with E. coli JS136 (setting [6]) came to 0.125 µg/mL. Besides, in the data set on P. aeruginosa 2018-007 (resistance indicator: IMP-7, broth microdilution, CAMHB), the “MIC P. aeruginosa 2018-007” value was determined as 2 µg/mL. Also, in the data set on K. pneumoniae KP1.53 (resistance indicator: MDR, broth microdilution, CAMHB), the “MIC K. pneumoniae KP1.53” value amounted to 0.5 µg/mL. In addition, the “MIC K. pneumoniae RC0045” value with K. pneumoniae RC0045 (setting [6]) turned out to be 0.25 µg/mL. In addition, in the data set on P. aeruginosa M120 (resistance indicator: OXA-50, blaPAO, broth microdilution, CAMHB), the “MIC P. aeruginosa M120” value stood at 1 µg/mL. Besides, the “MIC A. baumannii BAA-747” value against A. baumannii BAA-747 (broth microdilution, CAMHB) came to 0.25 µg/mL. The “MIC A. baumannii RUH-134” value in the data set on A. baumannii RUH-134 (setting [7]) worked out at 0.25 µg/mL. The “MIC E. coli M0072” value in the data set on E. coli M0072 (setting [7]) was found to be 0.125 µg/mL. Besides, the “MIC P. aeruginosa ATCC 10145” value against P. aeruginosa ATCC 10145 (broth microdilution, CAMHB) worked out at 1 µg/mL. In addition, in the data set with E. coli 1793 (resistance indicator: NDM-1, broth microdilution, CAMHB), the “MIC E. coli 1793” value worked out at 0.063 µg/mL. Moreover, in data set [1] (TC50 expressed relative to polymyxin B, 24 h incubation, 37 °C, serum-free medium, PrestoBlue fluorescence, nonlinear regression, triplicate), the “ciPTEC Toxicity Index (relative to polymyxin B)” value was 1.0. The “TC50, Day 1” value in data set [1] (cell batch/analysis Day 1, ciPTEC, 24 h, 37 °C, PrestoBlue, non-linear regression with bottom constraint at 0, triplicates) was found to be 80 µM. Moreover, in data set [1] (cell batch/analysis Day 2, ciPTEC, 24 h, 37 °C, PrestoBlue, non-linear regression with bottom constraint at 0, triplicates), the “TC50, Day 2” value amounted to 41 µM.
